Source: PubChem BioAssay AID1918941 (Molecular Pharmacology Branch, DTP, NCI, 2023)

Tested on: SW 1271 complex spheroids, viability
Assay: Anticancer human tumor SW 1271 cell line growth inhibition [LSD1];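 further: spheroids exposed to agents for 7 days before luminescence read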;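 on viability, T/C: 100% = DMSO vehicle control viability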
Settings: for IC50: curve of first compound; for viability, T/C: stronger effect = lower value
From the text: Multicellular complex tumor spheroid response to LSD1 Inhibitor Iadademstat in combination with a variety of drugs and investigational agents in selected tumor cell lines
The current study was undertaken to assess response to LSD1 inhibitors in combination with standard-of-care drugs and investigational agents in solid tumor complex spheroid models as well as in the K-562 leukemia. Complex spheroids include a stromal component modeled by human endothelial cells (HUVEC) and fibroblasts modeled by human mesenchymal stem cells (MSCs). The concentration ranges selected for each drug and investigational agent were based upon clinically achievable concentrations if the clinical Cmax of the agent was known.
Compounds. The drugs and investigational agents used in this study are listed on Table 1. All of the agents used, including staurosporine (NSC755774) and gemcitabine (NSC613327), were obtained from the Developmental Therapeutics Program, NCI. FDA-approved anticancer drugs are available from the NCI at http://dtp.nci.nih.gov/branches/dscb/oncology_drugset_explanation.html. Drugs and investigational agents were >95% pure by proton nuclear magnetic resonance (NMR) and liquid chromatography/mass spectrometry (LC/MS). Stock solutions were prepared at 400x in DMSO, stored at -70 degrees C, and diluted in fresh medium prior to their use. The final concentration of DMSO in cell culture wells never exceeded 0.25% (v/v). The FDA-approved anticancer drug set is available from the Developmental Therapeutics Program at https://dtp.cancer.gov/organization/dscb/obtaining/available_plates.htm. All drugs and investigational agents were tested over a range starting from a high concentration at or near the clinical Cmax and decreasing in half-log increments. If the clinical Cmax for an agent had not been determined, the highest concentration tested was 10 microM.
Cell Lines. The patient-derived cancer cell (PDC) lines: 292921-168-R-J2-PDC, K24384-001-R-PDC, and 521955-158-R2-J5-PDC pancreatic carcinomas, 556581-035-R-J1 ovarian carcinoma, 324938-238-R-J1-PDC, 855422-203-R-J1-PDC and 883617-216-R-J1-PDC urothelial bladder carcinomas, 743489-274-T-PDC renal cell carcinoma, 138582-R-J1 Merkel cell tumor, K60290-347-R-J1 and K57222-313-R-J1-PDC glioblastomas, 653999-131-R-J2-PDC, LG0703-F948-PDC, and 349418-098-R-PDC non-small cell lung carcinomas, 885512-296-R-J2-PDC, 171881-019-R-J1-PDC breast carcinomas and 186277-243-T-J2-PDC and 233499-124-R-J2-PDC colon carcinomas were obtained from the NCI Patient-Derived Models Repository (PDMR, https://pdmr.cancer.gov). The established cell lines NCI/ADR-RES (RRID:CVCL_14520 and OVCAR-5 (RRID:CVCL_1628) ovarian carcinomas, 786-O (RRID:CVCL_1051) and A498 (RRID:CVCL_A498) renal cell carcinoma, NCI-H211 (ATCC, cat. CRL-5824; RRID:CVCL_1529), NCI-H196 (ATCC, cat. CRL-5823, RRID:CVCL_1509), SW 1271 (ATCC, cat. CRL-2177, RRID:CVCL_1716) and NCI-H1876 (ATCC, cat. CRL-5902, RRID:CVCL_1503) small cell lung carcinomas, MDA-MB-231 (RRID:CVCL_0062) and MDA-MB-468 (RRID:CVCL_0419)breast carcinomas (10-12). Pooled donor human umbilical vein endothelial cells (HUVEC, Lonza, cat. CC-2519) and human mesenchymal stem cells (hMSC, Lonza, cat. PT-2501) were purchased from Lonza (Walkersville, MD).
Cell Culture. All cells were maintained in an incubator at 37 degrees C and 5% CO2 with 95% humidity. The PDC lines were cultured according to standard operating procedures established by the NCI PDMR (https://pdmr.cancer.gov). Briefly all PDCs were thawed and cultured in Matrigel-coated flasks prepared with a working solution of 1X Ham's F-12 nutrient mix, without supplementation (Invitrogen, Waltham, MA, cat. 11765054), 100 U/mL penicillin-streptomycin (Invitrogen, cat. 15140122), and 2.5% Matrigel (Corning Inc., Corning, NY, cat. 354248) for the first three passages. […]

Structure (SMILES): CC1(C)CCC(CN2CCN(c3ccc(C(=O)NS(=O)(=O)c4ccc(NCC5CCOCC5)c([N+](=O)[O-])c4)c(Oc4cnc5[nH]ccc5c4)c3)CC2)=C(c2ccc(Cl)cc2)C1 + NC1CC1c1ccc(-c2cccc(O)c2)cc1
- IC50 (second compound 0.1 µM): 2.55 µM
- IC50 (second compound 0.316 µM): 2.97 µM
- IC50 (second compound 1 µM): 2.49 µM
- IC50 (second compound 3.16 µM): 1.91 µM
- IC50 (second compound 10 µM): 2.1 µM
- viability, T/C (second compound 0.1 µM, first compound 0.0316 µM): 80.6%
- viability, T/C (second compound 0.1 µM, first compound 0.1 µM): 84.3%
- viability, T/C (second compound 0.1 µM, first compound 0.316 µM): 91.6%
- viability, T/C (second compound 0.1 µM, first compound 1 µM): 78.3%
- viability, T/C (second compound 0.1 µM, first compound 3.16 µM): 43.4%
- viability, T/C (second compound 0.1 µM, first compound 10 µM): 1.33%
- viability, T/C (second compound 0.316 µM, first compound 0.0316 µM): 85.8%
- viability, T/C (second compound 0.316 µM, first compound 0.1 µM): 95%
- viability, T/C (second compound 0.316 µM, first compound 0.316 µM): 91.8%
- viability, T/C (second compound 0.316 µM, first compound 1 µM): 85.5%
- viability, T/C (second compound 0.316 µM, first compound 3.16 µM): 47.9%
- viability, T/C (second compound 0.316 µM, first compound 10 µM): 1.12%
- viability, T/C (second compound 1 µM, first compound 0.0316 µM): 91.3%
- viability, T/C (second compound 1 µM, first compound 0.1 µM): 78.7%
- viability, T/C (second compound 1 µM, first compound 0.316 µM): 82.4%
- viability, T/C (second compound 1 µM, first compound 1 µM): 80.8%
- viability, T/C (second compound 1 µM, first compound 3.16 µM): 42%
- viability, T/C (second compound 1 µM, first compound 10 µM): 1.39%
- viability, T/C (second compound 3.16 µM, first compound 0.0316 µM): 78.4%
- viability, T/C (second compound 3.16 µM, first compound 0.1 µM): 81.7%
- viability, T/C (second compound 3.16 µM, first compound 0.316 µM): 79%
- viability, T/C (second compound 3.16 µM, first compound 1 µM): 66.6%
- viability, T/C (second compound 3.16 µM, first compound 3.16 µM): 36.7%
- viability, T/C (second compound 3.16 µM, first compound 10 µM): 1.44%
- viability, T/C (second compound 10 µM, first compound 0.0316 µM): 73.3%
- viability, T/C (second compound 10 µM, first compound 0.1 µM): 65.6%
- viability, T/C (second compound 10 µM, first compound 0.316 µM): 64.1%
- viability, T/C (second compound 10 µM, first compound 1 µM): 69.8%
- viability, T/C (second compound 10 µM, first compound 3.16 µM): 40%
- viability, T/C (second compound 10 µM, first compound 10 µM): 0.32%

Structure (SMILES): Nc1ncn(C2CC(O)C(CO)S2)c(=O)n1 (stereo not given) + NC1CCC(NC2CC2c2ccccc2)CC1
- IC50 (second compound 0.1 µM): > 0.3 µM
- IC50 (second compound 0.316 µM): > 0.3 µM
- IC50 (second compound 1 µM): > 0.3 µM
- IC50 (second compound 3.16 µM): > 0.3 µM
- IC50 (second compound 10 µM): > 0.3 µM
- viability, T/C (second compound 0.1 µM, first compound 0.000949 µM): 97.4%
- viability, T/C (second compound 0.1 µM, first compound 0.003 µM): 82.8%
- viability, T/C (second compound 0.1 µM, first compound 0.00949 µM): 92.1%
- viability, T/C (second compound 0.1 µM, first compound 0.03 µM): 85.2%
- viability, T/C (second compound 0.1 µM, first compound 0.0949 µM): 86.9%
- viability, T/C (second compound 0.1 µM, first compound 0.3 µM): 82%
- viability, T/C (second compound 0.316 µM, first compound 0.000949 µM): 98.1%
- viability, T/C (second compound 0.316 µM, first compound 0.003 µM): 92%
- viability, T/C (second compound 0.316 µM, first compound 0.00949 µM): 105%
- viability, T/C (second compound 0.316 µM, first compound 0.03 µM): 93.6%
- viability, T/C (second compound 0.316 µM, first compound 0.0949 µM): 86.7%
- viability, T/C (second compound 0.316 µM, first compound 0.3 µM): 82.1%
- viability, T/C (second compound 1 µM, first compound 0.000949 µM): 92.8%
- viability, T/C (second compound 1 µM, first compound 0.003 µM): 84.5%
- viability, T/C (second compound 1 µM, first compound 0.00949 µM): 98.6%
- viability, T/C (second compound 1 µM, first compound 0.03 µM): 101%
- viability, T/C (second compound 1 µM, first compound 0.0949 µM): 89.2%
- viability, T/C (second compound 1 µM, first compound 0.3 µM): 72.4%
- viability, T/C (second compound 3.16 µM, first compound 0.000949 µM): 94.8%
- viability, T/C (second compound 3.16 µM, first compound 0.003 µM): 91.7%
- viability, T/C (second compound 3.16 µM, first compound 0.00949 µM): 77.4%
- viability, T/C (second compound 3.16 µM, first compound 0.03 µM): 93.9%
- viability, T/C (second compound 3.16 µM, first compound 0.0949 µM): 77.7%
- viability, T/C (second compound 3.16 µM, first compound 0.3 µM): 82.1%
- viability, T/C (second compound 10 µM, first compound 0.000949 µM): 70.8%
- viability, T/C (second compound 10 µM, first compound 0.003 µM): 84.5%
- viability, T/C (second compound 10 µM, first compound 0.00949 µM): 84.5%
- viability, T/C (second compound 10 µM, first compound 0.03 µM): 83.9%
- viability, T/C (second compound 10 µM, first compound 0.0949 µM): 83.2%
- viability, T/C (second compound 10 µM, first compound 0.3 µM): 63.6%
